According to ChEMBL document CHEMBL1126417, “Indazole as an indole bioisostere: 5-HT4 receptor antagonism” (Bioorg Med Chem Lett, 1992):

Experiments:
[1] = biological target: Serotonin 4 (5-HT4) receptor (Sus scrofa) (UniProt Q6Q253); assay: Evaluated for the 5-hydroxytryptamine 4 receptor antagonistic activity in piglet atrium model; type: functional, tissue-based; settings: Cardiac atrium
[2] = biological target: Serotonin 3 (5-HT3) receptor (Homo sapiens) (UniProt P46098+A5X5Y0+O95264+Q70Z44+Q8WXA8)
Description: Evaluated for the 5-hydroxytryptamine 3 receptor antagonistic activity in Bezold-Jarisch model expressed as inhibition of the reflex bradycardia induced by an intravenous injection

Sequence of Serotonin 4 (5-HT4) receptor (Sus scrofa) (Q6Q253 as listed by the source): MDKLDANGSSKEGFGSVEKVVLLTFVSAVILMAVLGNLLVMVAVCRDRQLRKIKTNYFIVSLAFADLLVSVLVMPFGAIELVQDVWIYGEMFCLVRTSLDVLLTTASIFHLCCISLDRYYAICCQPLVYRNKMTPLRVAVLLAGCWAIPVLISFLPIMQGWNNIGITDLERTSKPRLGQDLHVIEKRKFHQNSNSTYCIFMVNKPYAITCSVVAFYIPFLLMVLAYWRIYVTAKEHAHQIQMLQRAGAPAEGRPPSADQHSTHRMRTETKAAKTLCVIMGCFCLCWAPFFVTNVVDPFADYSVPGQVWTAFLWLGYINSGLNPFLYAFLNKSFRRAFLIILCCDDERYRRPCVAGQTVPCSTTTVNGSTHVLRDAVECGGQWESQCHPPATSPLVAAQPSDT

Question: With `CN1C2CCC1CC(NC(=O)c1n[nH]c3ccccc13)C2` (stereo not given) as the compound, how does the -Log KB [1] read?
Answer: The -Log KB was 6.8.

Question: And the ID50 [2]?
Answer: Its ID50 is 1.5 µg/kg.

Question: For `CN1C2CCC1CC(OC(=O)c1[nH]nc3ccccc13)C2` (stereo not given), which -Log KB [1] is on record?
Answer: The -Log KB was 7.2.

Question: And the ID50 [2]?
Answer: Its ID50 is 5 µg/kg.

Question: How did the -Log KB [1] turn out when `CN1C2CCCC1CC(NC(=O)c1[nH]nc3ccccc13)C2` (stereo not given) was run?
Answer: The -Log KB was 5.

Question: What about the ID50 [2] of the same compound?
Answer: Its ID50 is 1 µg/kg.

Question: For `CN1C2CCC1CC(NC(=O)N1CC(C)(C)c3ccccc31)C2` (stereo not given), which -Log KB [1] is on record?
Answer: Its -Log KB is 4.9.

Question: With `CN1[C@@H]2CC[C@H]1C[C@H](NC(=O)c1nn(C)c3ccccc13)C2` as the compound, how does the -Log KB [1] read?
Answer: The -Log KB was 6.5.

Question: Which -Log KB [1] does the source give for `CN1[C@@H]2CC[C@H]1C[C@@H](OC(=O)c1c[nH]c3ccccc13)C2` here?
Answer: Its -Log KB is 6.9.

Question: What about the ID50 [2] of the same compound?
Answer: The ID50 was 1.4 µg/kg.
